From patent publication US20040058948A1, “Mappicine analogs, methods of inhibiting retroviral reverse transcriptase and methods of treating retroviruses” (priority 2002, published 2004)

What was measured:
[1] = target: RNase H activity of HIV reverse transcriptase (Human immunodeficiency virus type 1 group M subtype B, UniProt P04585); test: Fluorescence (FRET)-based RNase H activity assay of HIV reverse transcriptase; type: biochemical, HIV-1; set-up: final concentration of 2.5 nM of the p51/p66 RT heterodimer in the assay; made in house; details: 10 μM inhibitor concentration; activity with analog / without analog x 100
Experimental: Recently, a fluorescence-based assay to perform preliminary screens in search of HIV RNase H inhibitors has been developed. The assay, which is carried out in 96-well microplates and is adaptable to robotics, is the first high-throughput screen for RNase H and is described in further detail in the Experimental section. HIV-1 RT and human RNase H were cloned, and thus comparative analysis of inhibitor action could be conducted simultaneously.
The assay for RNase H activity of HIV reverse transcriptase was the fluorescence-based assay described in detail in the Experimental section and discussed in U.S. Provisional Patent Application Serial No. 60/318,359. Assays were carried out in the absence and in the presence of mappicine analogs (10 μM final concentration). The results are reported as % residual activity, which is the RNase H activity of the enzyme in the presence of the mappicine analog divided by the RNase H activity of the enzyme in the absence of the mappicine analog, multiplied by 100. Alternatively, the results are reported as % inhibition, which is calculated as the ratio of the RNase H activity of the enzyme in the presence of the mappicine analog to the enzyme activity in the absence of the mappicine analog, multiplied by 100, and then subtracting this number from 100.
Assay for Ribonuclease H Activity Based on Fluorescence Resonance Energy Transfer (FRET)
Preparation of the Fluorophore-RNA/Quencher-DNA Hybrid Duplex Substrate.
The RNA/DNA hybrid duplex substrate for use in the assay comprises an RNA oligonucleotide of sequence 5′-GAU CUG AGC CUG GGA GCU-3′, modified at the 3′-end with Aminolink-2 and derivatized with fluorescein isothiocyanate, to provide a modified RNA oligonucleotide of the sequence 5′-GAU CUG AGC CUG GGA GCU-fluorescein-3′, annealed to a complementary DNA oligonucleotide of the sequence 5′-AGC TCC CAG GCT CAG ATC-3′ modified at the 5′-end with Aminolink-2 and derivatized with the FRET acceptor DABCYL succinimidyl ester, to provide a modified DNA oligonucleotide of the sequence 5′-DABCYL-AGC TCC CAG GCT CAG ATC-3′.
To prepare the 3′-fluorescein-RNA/5′-DABCYL-DNA hybrid duplex substrate, a known amount of 3′-fluorescein-RNA was dissolved in 20 mM Tris buffer (pH 8.0, 37° C.) to provide a final concentration of 5 μM. Two equivalents of the 5′-DABCYL-DNA oligonucleotide were added, and the mixture was heated to 90° C. for 5 min and cooled slowly to room temperature to allow duplex formation. The positioning of the fluorescein donor at the 3′-end of the RNA oligonucleotide and the DABCYL acceptor at the 5′-end of the DNA oligonucleotide provides a very close proximity of the donor and acceptor that results in a very intense quenching of the fluorescein emission in the intact RNA/DNA hybrid duplex substrate due to the spectral overlap of the fluorescence emission of fluorescein with the absorption spectrum of DABCYL. In addition, DABCYL is non-fluorescent, and thus cannot contribute any light emission. Both of these factors result in a very low background and provide a high signal-to-noise in the assay measurements. The ratio of the donor fluorescence in the absence and in the presence of its quencher is approximately fifteen-fold.
Microplate Assay Protocol for the Measurement of RNase H Activity Using the RNA/DNA Hybrid Duplex Substrate.
Reaction assay mixtures contained 5 μl of a stock solution of 2.5 μM RNA/DNA hybrid duplex substrate added to 85 μl of assay buffer (50 mM Tris, pH 8.0, 37° C., containing 60 mM KCl and 2.5 mM MgCl2), prepared in the wells of a 96-well fluorescence microtiter plate, and warmed to 37° C. using the temperature control of the SpectraMax Gemini XS microplate spectrofluorometer (Molecular Devices). Reactions were started by the addition of 5 μl of a solution of recombinant HIV-1 reverse transcriptase (usually providing a final concentration of 2.5 nM of the p51/p66 RT heterodimer in the assay), and mixing using the automatic mixing function of the microplate spectrofluorometer. […]

[2] = target: T1, RNA-dependent DNA polymerase activity of HIV reverse transcriptase (Human immunodeficiency virus type 1 group M subtype B, UniProt P04585); test: RNA-dependent DNA polymerase activity assay of HIV reverse transcriptase; type: biochemical, HIV-1; details: 10 μM inhibitor concentration; activity with analog / without analog x 100
T1 construct: made in house
Experimental: In separate, representative assays, mappicine analogs were tested for their ability to inhibit the RNA-dependent DNA polymerase activity of HIV reverse transcriptase and for their ability to inhibit the RNase H activity of HIV reverse transcriptase. The assay for RNA-dependent DNA polymerase activity is discussed in Borkow, G. et al., “Inhibition of the Ribonuclease H and DNA Polymerase Activities of HIV-1 Reverse Transcriptase by N-(4-tert-Butylbenzoyl)-2-hydroxy-1-naphthaldehyde Hydrazone,” Biochemistry 1997, 36, 3179-3185, a copy of which is attached hereto, and the disclosure of which is incorporated herein by reference. Assays were carried out in the absence and in the presence of mappicine analogs (10 μM final concentration). The results are reported as % residual activity, which is the RNA-dependent DNA polymerase activity of the enzyme in the presence of the mappicine analog divided by the RNA-dependent activity of the enzyme in the absence of the mappicine analog, multiplied by 100.

Row | SMILES | Residual activity (%) RNase H [1] [%] | Residual activity (%) Polymerase [2] [%]
1 | CCC(O)c1cc2n(c(=O)c1C)Cc1c-2nc2ccccc2c1-c1ccccc1 (racemic) [3Aα] | 97 | 90
2 | Cc1c(C(O)C(C)(C)C)cc2n(c1=O)Cc1c-2nc2ccccc2c1-c1ccccc1 (racemic) [3Aβ] | 95 | 54
3 | Cc1c(C(O)CCC2CCCCC2)cc2n(c1=O)Cc1c-2nc2ccccc2c1-c1ccccc1 (racemic) [3Aδ] | 104 | 32
4 | CCC(O)c1cc2n(c(=O)c1C)Cc1c-2nc2ccc(F)cc2c1-c1ccccc1 (racemic) [3Bα] | 83 | 54
5 | Cc1c(C(O)C(C)(C)C)cc2n(c1=O)Cc1c-2nc2ccc(F)cc2c1-c1ccccc1 (racemic) [3Bβ] | 75 | 78
6 | Cc1c(C(O)CCC2CCCCC2)cc2n(c1=O)Cc1c-2nc2ccc(F)cc2c1-c1ccccc1 (racemic) [3Bδ] | 99 | 81
7 | Cc1c(C(O)Cc2ccccc2)cc2n(c1=O)Cc1c-2nc2ccc(F)cc2c1-c1ccccc1 (racemic) [3Bε] | 91 | 28
8 | CCC(O)c1cc2n(c(=O)c1C)Cc1c-2nc2ccc(C)cc2c1-c1ccccc1 (racemic) [3Cα] | 96 | 64
9 | Cc1ccc2nc3c(c(-c4ccccc4)c2c1)Cn1c-3cc(C(O)C(C)(C)C)c(C)c1=O (racemic) [3Cβ] | 84 | 70
10 | Cc1ccc2nc3c(c(-c4ccccc4)c2c1)Cn1c-3cc(C(O)Cc2ccccc2)c(C)c1=O (racemic) [3Cε] | 101 | 76
11 | CCC(O)c1cc2n(c(=O)c1C)Cc1c-2nc2ccc(OC)cc2c1-c1ccccc1 (racemic) [3Dα] | 78 | 69
12 | COc1ccc2nc3c(c(-c4ccccc4)c2c1)Cn1c-3cc(C(O)CCC2CCCCC2)c(C)c1=O (racemic) [3Dδ] | 67 | 60
13 | COc1ccc2nc3c(c(-c4ccccc4)c2c1)Cn1c-3cc(C(O)Cc2ccccc2)c(C)c1=O (racemic) [3Dε] | 79 | 61
14 | CCC(O)c1cc2n(c(=O)c1C)Cc1c-2nc2ccccc2c1[Si](C)(C)C(C)(C)C (racemic) [4Aα] | 104 | 67
15 | Cc1c(C(O)C(C)(C)C)cc2n(c1=O)Cc1c-2nc2ccccc2c1[Si](C)(C)C(C)(C)C (racemic) [4Aβ] | 101 | 71
16 | Cc1c(C(O)CCC2CCCCC2)cc2n(c1=O)Cc1c-2nc2ccccc2c1[Si](C)(C)C(C)(C)C (racemic) [4Aδ] | 95 | 45
17 | Cc1c(C(O)Cc2ccccc2)cc2n(c1=O)Cc1c-2nc2ccccc2c1[Si](C)(C)C(C)(C)C (racemic) [4Aε] | 93 | 83
18 | CCC(O)c1cc2n(c(=O)c1C)Cc1c-2nc2ccc(F)cc2c1[Si](C)(C)C(C)(C)C (racemic) [4Bα] | 108 | 98
19 | Cc1c(C(O)C(C)(C)C)cc2n(c1=O)Cc1c-2nc2ccc(F)cc2c1[Si](C)(C)C(C)(C)C (racemic) [4Bβ] | 113 | 49
20 | Cc1ccc2nc3c(c([Si](C)(C)C(C)(C)C)c2c1)Cn1c-3cc(C(O)CCC2CCCCC2)c(C)c1=O (racemic) [4Cδ] | 109 | 61
21 | COc1ccc2nc3c(c([Si](C)(C)C(C)(C)C)c2c1)Cn1c-3cc(C(O)C(C)(C)C)c(C)c1=O (racemic) [4Dβ] | 91 | 47
22 | COc1ccc2nc3c(c([Si](C)(C)C(C)(C)C)c2c1)Cn1c-3cc(C(O)CCC2CCCCC2)c(C)c1=O (racemic) [4Dδ] | 87 | 51
23 | COc1ccc2nc3c(c([Si](C)(C)C(C)(C)C)c2c1)Cn1c-3cc(C(O)Cc2ccccc2)c(C)c1=O (racemic) [4Dε] | 76 | 49
24 | Cc1c(C(O)C(C)(C)C)cc2n(c1=O)Cc1c-2nc2ccccc2c1[Si](C)(C)C (racemic) [5Aβ] | 77 | 103
25 | Cc1c(C(O)CCC2CCCCC2)cc2n(c1=O)Cc1c-2nc2ccccc2c1[Si](C)(C)C (racemic) [5Aδ] | 78 | 83
26 | Cc1c(C(O)Cc2ccccc2)cc2n(c1=O)Cc1c-2nc2ccccc2c1[Si](C)(C)C (racemic) [5Aε] | 93 | 54
27 | Cc1c(C(O)C(C)(C)C)cc2n(c1=O)Cc1c-2nc2ccc(F)cc2c1[Si](C)(C)C (racemic) [5Bβ] | 102 | 74
28 | Cc1c(C(O)CCC2CCCCC2)cc2n(c1=O)Cc1c-2nc2ccc(F)cc2c1[Si](C)(C)C (racemic) [5Bδ] | 103 | 78
29 | Cc1ccc2nc3c(c([Si](C)(C)C)c2c1)Cn1c-3cc(C(O)C(C)(C)C)c(C)c1=O (racemic) [5Cβ] | 80 | 72
30 | Cc1ccc2nc3c(c([Si](C)(C)C)c2c1)Cn1c-3cc(C(O)CCC2CCCCC2)c(C)c1=O (racemic) [5Cδ] | 103 | 41
